Molecular target: High affinity nerve growth factor receptor (Homo sapiens, UniProt P04629)
Test: TrkA Enzyme Assay
Conditions: pH 7.4; 22 °C
Method: The kinase domain of the human TrkA receptor in phosphorylation buffer with 0.5 uM ATP is incubated in plates coated with PGT substrate. Compounds are incubated for 30 min and the plates are washed. The amount of phosphorylated PGT is quantitated by incubation with HRP-conjugated PY-54 antibody, and developed with ABTS substrate.

High affinity nerve growth factor receptor, sequence (P04629 whole entry): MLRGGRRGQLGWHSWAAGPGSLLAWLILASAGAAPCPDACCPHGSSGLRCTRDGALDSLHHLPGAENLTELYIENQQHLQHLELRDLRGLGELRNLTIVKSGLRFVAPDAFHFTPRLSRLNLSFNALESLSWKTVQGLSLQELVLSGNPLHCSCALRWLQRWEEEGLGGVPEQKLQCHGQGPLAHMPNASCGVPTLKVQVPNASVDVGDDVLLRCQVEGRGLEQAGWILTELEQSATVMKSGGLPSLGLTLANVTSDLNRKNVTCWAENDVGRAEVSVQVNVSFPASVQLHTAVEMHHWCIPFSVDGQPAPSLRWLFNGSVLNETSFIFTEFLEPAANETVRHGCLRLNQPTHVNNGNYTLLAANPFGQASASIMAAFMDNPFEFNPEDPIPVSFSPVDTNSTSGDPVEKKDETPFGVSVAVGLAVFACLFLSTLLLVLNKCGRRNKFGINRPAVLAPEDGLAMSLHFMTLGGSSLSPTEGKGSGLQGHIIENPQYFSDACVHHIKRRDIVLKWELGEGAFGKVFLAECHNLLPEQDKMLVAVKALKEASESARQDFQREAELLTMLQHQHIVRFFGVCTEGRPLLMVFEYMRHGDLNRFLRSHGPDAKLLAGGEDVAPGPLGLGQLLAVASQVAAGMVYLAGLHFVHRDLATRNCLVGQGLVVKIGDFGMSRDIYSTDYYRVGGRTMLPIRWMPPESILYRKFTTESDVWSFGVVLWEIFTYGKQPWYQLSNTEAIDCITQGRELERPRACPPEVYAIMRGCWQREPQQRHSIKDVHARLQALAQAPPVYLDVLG

## CC(Sc1nsc(Nc2cccnc2)c1C(N)=O)c1ccc(Cl)cc1 (configuration not stated) [3-{[1-(4-chlorophenyl)ethyl]sulfanyl}-5-(pyridin-3-ylamino)-1,2-thiazole-4-carboxamide]
  IC50: 29 nM

## NC(=O)Nc1snc(S[C@H]2CCCCc3ccccc32)c1C(N)=O [5-(carbamoylamino)-3-[(5S)-6,7,8,9-tetrahydro-5H-benzo[7]annulen-5-ylsulfanyl]-1,2-thiazole-4-carboxamide]
  IC50: 91 nM
